Legend:
Format in all cases: biochemical
human NTPDase1 = biological target: T1, human NTPDase1 (Homo sapiens, UniProt P49961); test: Malachite green assay, human NTPDase1; details: 2 μM compound, 50 µM ATP, COS-7 membrane preparation; for inhibition at 2 µM: read-out: % inhibition at 2 μM concentration, NTPDase1
T1 construct: expressed in transfected cells; host or cells: COS-7 cells (membrane preparation)
T1 sequence (P49961 1-510): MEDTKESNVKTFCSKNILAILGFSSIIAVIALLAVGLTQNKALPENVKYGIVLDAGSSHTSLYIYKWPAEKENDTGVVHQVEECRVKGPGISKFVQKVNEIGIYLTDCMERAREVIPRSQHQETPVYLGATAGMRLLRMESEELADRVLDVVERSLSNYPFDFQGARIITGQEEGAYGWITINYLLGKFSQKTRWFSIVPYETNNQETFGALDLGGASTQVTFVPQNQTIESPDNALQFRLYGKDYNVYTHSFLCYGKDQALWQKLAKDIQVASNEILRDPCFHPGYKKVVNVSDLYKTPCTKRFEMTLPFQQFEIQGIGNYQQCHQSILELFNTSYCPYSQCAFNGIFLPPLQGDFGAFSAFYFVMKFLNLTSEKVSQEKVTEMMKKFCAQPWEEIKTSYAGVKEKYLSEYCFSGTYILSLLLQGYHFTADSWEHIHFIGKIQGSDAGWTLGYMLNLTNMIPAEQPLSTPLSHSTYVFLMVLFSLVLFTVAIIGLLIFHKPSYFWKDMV
Experimental: (§1) Membrane preparations expressing human NTPDase1, -2, -3, or -8, respectively, were obtained as previously described ([Sévigny et al., 1997]; [Cogan et al., 1999]; [Kukulski et al., 2005]; [Lecka et al., 2013]; [Lee et al., 2018]). Enzyme inhibition assays were performed using the malachite green assay in analogy to published procedures with some modifications ([Dou et al., 2018]). The reaction buffer contained 10 mM HEPES, 2 mM CaCl2, and 1 mM MgCl2 (pH 7.4) in a final volume of 50 μL in transparent 96-well half-area plates. The compounds were initially tested at a final concentration of 2 µM using a COS-7-cell membrane preparation expressing the appropriate NTPDase isoenzyme (protein amount: 143 ng for NTPDase1, 175 ng for NTPDase2, 152 ng for NTPDase3, and 175 ng for NTPDase8). Preincubated of the enzyme preparations was perfomred at 37°C in the presence or absence of test compounds with gentle shaking (Eppendorf Thermomixer comfort at 500 rpm) for 5 min. […] ([Kukulski et al., 2005]). After 15 min of incubation at 37°C with gentle shaking, the reaction was stopped by the addition of the detection reagents (20 µL malachite green solution, 0.6 mM, and 30 µL of ammonium molybdate solution, 20 mM, in 1.5 M sulfuric acid). The released inorganic phosphate was quantified after 20 min of gentle shaking at 25°C by measuring the absorption of the malachite green-phosphomolybdate complex at 600 nm using a BMG PheraStar FS plate reader (BMG Labtech GmbH, Ortenberg, Germany). The corrected absorption was calculated by subtracting the absorption of the negative control samples, which were incubated with previously denatured enzyme (90°C, 15 min). Full concentration-inhibition curves were determined with inhibitor concentrations ranging from 0.03 to 30 µM in the presence of 2% DMSO. Inhibition-type experiments were performed with 25, 50, 100, 150 and 200 µM ATP as substrate for NTPDase2 in the presence of inhibitor 20 (0, 0.25, 0.5, and 1 µM) and 25, 50, 100 and 150 µM ATP substrate for NTPDase3 and compound 42 (0.25, 0.5, and 1 µM). For all of the presented data, at least three independent experiments were performed, and IC50 values were calculated by GraphPad Prism 8 software.
(§2) Inhibition of human NTPDases was performed using the malachite green assay, which was established on a robotic system (Z’ factors > 0.70) ([Baykov et al., 1988]; [Fiene et al., 2015]). The malachite green assay enables the detection of the phosphate produced by the enzymatic hydrolysis of nucleotides. A fixed substrate concentration of 50 µM ATP for NTPDase1 and 100 µM for NTPDase2, -3, and -8 was employed. Test compounds were initially screened at a concentration of 2 μM. […] A total of 48 synthesized anthraquinone derivatives including 14 new compounds not previously described in the literature were evaluated for their inhibitory activity at human NTPDase1, -2, -3, and -8 (for results see Table 1).

human NTPDase2 = biological target: T2, human NTPDase2 (Homo sapiens, UniProt Q9Y5L3); test: Malachite green assay, human NTPDase2; details: 100 µM ATP, COS-7 membrane preparation; for inhibition at 2 µM: read-out: % inhibition at 2 μM concentration, NTPDase2
T2 construct: expressed in transfected cells; host or cells: COS-7 cells (membrane preparation)
T2 sequence (Q9Y5L3 1-495): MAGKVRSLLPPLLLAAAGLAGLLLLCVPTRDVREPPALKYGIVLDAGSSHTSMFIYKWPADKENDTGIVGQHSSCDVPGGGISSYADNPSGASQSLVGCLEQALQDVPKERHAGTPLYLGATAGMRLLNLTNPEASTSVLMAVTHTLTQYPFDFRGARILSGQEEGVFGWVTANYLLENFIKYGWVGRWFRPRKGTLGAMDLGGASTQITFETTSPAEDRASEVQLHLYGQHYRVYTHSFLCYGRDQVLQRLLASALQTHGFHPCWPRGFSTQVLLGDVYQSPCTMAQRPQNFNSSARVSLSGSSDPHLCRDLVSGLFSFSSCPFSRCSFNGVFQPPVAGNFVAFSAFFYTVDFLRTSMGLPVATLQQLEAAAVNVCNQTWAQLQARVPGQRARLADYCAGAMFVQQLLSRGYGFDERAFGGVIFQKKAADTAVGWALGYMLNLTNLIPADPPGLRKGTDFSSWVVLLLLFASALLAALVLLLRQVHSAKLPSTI
Experimental: as §1, §2

human NTPDase3 = biological target: T3, human NTPDase3 (Homo sapiens, UniProt O75355); test: Malachite green assay, human NTPDase3; details: 100 µM ATP, COS-7 membrane preparation; for IC50: read-out: IC50 ± SEM, NTPDase3; for inhibition at 2 µM: 2 μM compound, read-out: % inhibition at 2 μM concentration, NTPDase3
T3 construct: expressed in transfected cells; host or cells: COS-7 cells (membrane preparation)
T3 sequence (O75355 1-529): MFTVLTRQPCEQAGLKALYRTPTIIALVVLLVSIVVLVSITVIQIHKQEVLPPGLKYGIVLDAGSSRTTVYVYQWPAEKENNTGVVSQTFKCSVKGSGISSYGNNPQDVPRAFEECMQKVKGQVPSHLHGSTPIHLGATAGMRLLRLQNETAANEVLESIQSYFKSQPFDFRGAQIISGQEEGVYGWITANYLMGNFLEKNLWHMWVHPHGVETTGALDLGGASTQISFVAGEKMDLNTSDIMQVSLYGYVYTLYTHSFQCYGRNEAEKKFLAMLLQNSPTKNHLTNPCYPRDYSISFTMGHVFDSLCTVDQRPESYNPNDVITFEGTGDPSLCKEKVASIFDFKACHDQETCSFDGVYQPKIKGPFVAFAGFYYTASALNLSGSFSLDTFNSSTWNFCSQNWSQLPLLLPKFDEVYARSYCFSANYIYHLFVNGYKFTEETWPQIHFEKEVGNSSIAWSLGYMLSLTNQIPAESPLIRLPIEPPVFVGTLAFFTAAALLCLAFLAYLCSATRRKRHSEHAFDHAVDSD
Experimental: as §1, §2

human NTPDase8 = biological target: T4, human NTPDase8 (Homo sapiens, UniProt Q5MY95); test: Malachite green assay, human NTPDase8; details: for inhibition at 2 µM: read-out: % inhibition at 2 μM concentration, NTPDase8
T4 construct: expressed in transfected cells; host or cells: COS-7 cells (membrane preparation)
T4 sequence (Q5MY95 1-495): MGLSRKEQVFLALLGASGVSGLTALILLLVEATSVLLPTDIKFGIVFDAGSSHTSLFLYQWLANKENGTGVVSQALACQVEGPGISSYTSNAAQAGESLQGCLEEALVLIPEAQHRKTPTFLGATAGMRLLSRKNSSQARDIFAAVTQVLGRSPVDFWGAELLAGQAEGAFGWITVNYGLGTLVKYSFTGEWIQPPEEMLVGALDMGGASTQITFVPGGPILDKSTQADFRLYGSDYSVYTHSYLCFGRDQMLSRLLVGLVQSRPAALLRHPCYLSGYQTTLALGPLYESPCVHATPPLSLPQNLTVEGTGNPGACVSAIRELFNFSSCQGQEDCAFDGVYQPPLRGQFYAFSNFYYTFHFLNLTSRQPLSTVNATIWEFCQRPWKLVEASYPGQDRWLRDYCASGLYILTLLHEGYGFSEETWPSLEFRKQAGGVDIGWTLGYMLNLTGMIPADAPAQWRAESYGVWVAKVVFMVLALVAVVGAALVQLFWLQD
Experimental: as §1, §2

[1] = 2 μM compound, 100 µM ATP, COS-7 membrane preparation

SMILES | IC50 (human NTPDase3) [µM] | inhibition at 2 µM (human NTPDase1) [%] | inhibition at 2 µM (human NTPDase2; 2 μM compound) [%] | inhibition at 2 µM (human NTPDase3) [%] | inhibition at 2 µM (human NTPDase8; [1]) [%] | IC50 (human NTPDase2; read-out: IC50 ± SEM, NTPDase2) [µM] | % inhibition at 2 μM concentration, NTPDase1 (human NTPDase1) | % inhibition at 2 μM concentration, NTPDase2 (human NTPDase2; 2 μM compound) | inhibitory activity at NTPDase8 (in words) (human NTPDase8) | % inhibition at 2 μM concentration, NTPDase8 (human NTPDase8; [1])
Nc1c(S(=O)(=O)O)cc(Nc2ccc(Nc3nc(Cl)nc(Nc4cccc(S(=O)(=O)O)c4)n3)c(S(=O)(=O)O)c2)c2c1C(=O)c1ccccc1C2=O [Compound 5, reactive blue-2, reference compound] | 0.942 ± 0.024 | – | – | – | – | – | (17) % | (42) % | inactive | (-8) %
Nc1c(S(=O)(=O)O)cc(NCc2ccccc2)c2c1C(=O)c1ccccc1C2=O [Compound 12] | – | -10 | 11 | 6 | 3 | – | – | – | – | –
Nc1c(S(=O)(=O)O)cc(NCCc2ccccc2)c2c1C(=O)c1ccccc1C2=O [Compound 13] | – | -12 | 12 | -3 | -3 | – | – | – | – | –
Nc1c(S(=O)(=O)O)cc(Nc2ccccc2)c2c1C(=O)c1ccccc1C2=O [Compound 14] | – | -13 | 15 | -10 | -15 | – | – | – | – | –
Cc1ccc2ccccc2c1Nc1cc(S(=O)(=O)O)c(N)c2c1C(=O)c1ccccc1C2=O [Compound 16] | – | 3 | – | -21 | 3 | 5.62 ± 0.72 | – | – | – | –
Nc1c(S(=O)(=O)O)cc(Nc2cccc3cccc(S(=O)(=O)O)c23)c2c1C(=O)c1ccccc1C2=O [Compound 17] | 1.64 ± 0.26 | -1 | 15 | – | -11 | – | – | – | – | –
Nc1ccc(Nc2cc(S(=O)(=O)O)c(N)c3c2C(=O)c2ccccc2C3=O)cc1 [Compound 25] | – | -19 | 17 | -25 | -12 | – | – | – | – | –
Nc1cc(Nc2cc(S(=O)(=O)O)c(N)c3c2C(=O)c2ccccc2C3=O)ccc1S(=O)(=O)O [Compound 31] | 4.26 ± 0.54 | -15 | 1 | – | -19 | – | – | – | – | –
Nc1ccc(Nc2cc(S(=O)(=O)O)c(N)c3c2C(=O)c2ccccc2C3=O)cc1S(=O)(=O)O [Compound 32] | 1.73 ± 0.55 | 10 | 5 | – | -20 | – | – | – | – | –

Second part, led by results:

IC50 (human NTPDase3) [µM] | inhibition at 2 µM (human NTPDase1) [%] | inhibition at 2 µM (human NTPDase2; 2 μM compound) [%] | inhibition at 2 µM (human NTPDase3) [%] | inhibition at 2 µM (human NTPDase8; [1]) [%] | IC50 (human NTPDase2; read-out: IC50 ± SEM, NTPDase2) [µM] | SMILES | % inhibition at 2 μM concentration, NTPDase1 (human NTPDase1) | % inhibition at 2 μM concentration, NTPDase2 (human NTPDase2; 2 μM compound) | inhibitory activity at NTPDase8 (in words) (human NTPDase8) | % inhibition at 2 μM concentration, NTPDase8 (human NTPDase8; [1])
4.72 ± 0.4 | 0 | 13 | – | -35 | – | Nc1c(S(=O)(=O)O)cc(Nc2ccc3cc(C(=O)O)ccc3c2)c2c1C(=O)c1ccccc1C2=O [Compound 19] | – | – | – | –
– | -8 | 15 | 0 | -1 | – | Nc1c(S(=O)(=O)O)cc(Nc2cccc(F)c2)c2c1C(=O)c1ccccc1C2=O [Compound 21] | – | – | – | –
8.96 ± 1.08 | -4 | 12 | – | -26 | – | Nc1c(S(=O)(=O)O)cc(Nc2cccc(Br)c2)c2c1C(=O)c1ccccc1C2=O [Compound 22] | – | – | – | –
15.3 ± 2.5 | -32 | 19 | – | 3 | – | Nc1c(S(=O)(=O)O)cc(Nc2cccc([N+](=O)[O-])c2)c2c1C(=O)c1ccccc1C2=O [Compound 24] | – | – | – | –
3.1 ± 0.45 | -17 | 2 | – | -17 | – | Nc1c(S(=O)(=O)O)cc(Nc2cccc(C(=O)O)c2)c2c1C(=O)c1ccccc1C2=O [Compound 26] | – | – | – | –
0.723 ± 0.032 | -12 | 12 | – | -9 | – | Nc1c(S(=O)(=O)O)cc(Nc2ccc(O)c(C(=O)O)c2)c2c1C(=O)c1ccccc1C2=O [Compound 33, 1-amino-4-(3-carboxy-4-hydroxyphenylamino)-9,10-dioxo-9,10-dihydroanthracene-2-sulfonate] | – | – | – | –
4.04 ± 0.47 | -20 | -2 | – | -17 | – | Nc1c(S(=O)(=O)O)cc(Nc2ccc(Cl)cc2C(=O)O)c2c1C(=O)c1ccccc1C2=O [Compound 36] | – | – | – | –

— publication PMC7481482, “Development of Anthraquinone Derivatives as Ectonucleoside Triphosphate Diphosphohydrolase (NTPDase) Inhibitors With Selectivity for NTPDase2 and NTPDase3” (Frontiers in Pharmacology, 2020)
